One may read the IC50 as the midpoint of a concentration-inhibition curve.

This experiment has as its system L1210. Put plainly: Cytotoxicity against mouse L1210 cells. Type of experiment: functional, cell-based.

≈ marks a conversion by molar mass, not a printed value.

In turn, `CC(=O)OC[C@]12CC[C@H]3[C@@H](C[C@@H](O)[C@@]4(O)C[C@@H](O)CC[C@]34C)[C@@H]1[C@H](O)C[C@@H]2[C@H](C)CCCC(C)C` [DENDRONESTEROL B] registered an IC50 of 5.2 µg/mL (≈ 10.5 µM).

The values are drawn from ChEMBL document CHEMBL1154581, “Polyhydroxylated sterols from the octocoral Dendronephthya gigantea” (J Nat Prod, 2000).
